Here are results for 5 molecules from patent US11246858B2, “Immunoresponsive methods of treating tumors” (Institut Pasteur de Montevideo, priority 2017, dated 2022).

One assay deals with EG7.OVA cancer cells. In words: EG7.OVA tumor-bearing wild type mice treated with BAY K8644. Type of assay: in vivo. The conditions noted are these: EG7.OVA s.c., i.p. daily day 3 to day 15, vs control vehicle. The method, then: Data from in vivo studies depicted in FIG. 16 confirm the effect of pharmacologic inhibition of TORID on tumor growth. The study was performed on wild type mice injected subcutaneously with EG7.OVA cancer cells. Three days after inoculating the wild type mice with EG7.OVA tumor cells, Bay K8644 or a control vehicle, such as ethanol, were injected intraperitoneally daily up to the fifteenth day after tumor cell inoculation.

Another assay relates to TORID. In words: TORID activity by ANG-2 probe fluorescence (flow cytometry) in transfected CHO cells. Type of assay: cell-based. The method, then: As shown in FIG. 14 Chinese hamster ovarian (CHO) cells were transfected with TORID and Tmem176a and incubated for 24 hours. The cells were subsequently loaded with ANG-2 probe for 30 min RT, washed, and then incubated with (+)-BAY […] or (i)-BAY […] for 30 min. The cells were then analyzed by flow cytometry to evaluate TORID activity. Activity was measured by comparing fluorescence of the ANG-2 probe in TORID+ cells incubated with BAY […] (blue) to the control (red). TORID activity measure as the ANG-2 mean fluorescent intensity (MFI) in normal medium 0(-), 5(+), or 10(++) uM. […] FIG. 15 illustrates analysis of the ANG-2 mean fluorescent intensity (MFI) in normal medium of TORID exposed to BAY […] concentrations of 0 uM (-), 5 uM (+) or 10 uM (++). […] In all cases fluorescence intensity from ANG-2-loaded cells cultured in […] buffer was subtracted.
On the technique in general: A flow cytometer gives signals particle by particle.

The subject of the next assay is EG7.OVA cells. In words: EG7.OVA tumor in caspase 1/11 active and caspase 1/11 KO mice treated with BAY K8644. The assay is classed as in vivo. As to conditions: 4 mg/kg i.p. daily day 3 to day 15. An excerpt: FIG. 17 further confirms the results from FIG. 16 and the proposed mechanism depicted in FIG. 6. Data shown in FIG. 17 was gathered from caspase 1/11 active mice (1/11^+/+) and caspase 1/11 KO mice (1/11^−/−) injected with EG7.OVA cells.

In another assay the test system is EG7 and MC38 tumors. In words: Survival of mice with EG7 and MC38 tumors treated with anti-PD-1 alone or anti-PD-1+Bayk8644. As to conditions: anti-PD-1 resistant mice; two tumor types (EG7, MC38); anti-PD-1+BAY K8644 vs anti-PD-1 alone. The assay is classed as in vivo.
A further assay deals with IL-1β secretion. In words: IL-1β secretion by LPS-primed, stimulated WT and TORID KO BMDCs (ELISA). The conditions noted are these: for IL-1β secretion: WT and TORID KO BMDCs primed with LPS, stimulated with ATP. The assay is classed as cell-based, mouse. As to the method:
The study shown in FIG. 8 was performed by priming WT and TORID KO mice bone marrow-derived dendritic cells (BMDCs) with 0.25 μg/mL lipopolysaccharide (LPS) for four hours. The BMDCs were then washed and treated with different doses of ATP, Nigericin, and aluminum for 45 minutes as shown in the left column of bar graphs. Alternatively, 0.5 mg/mL ATP, 2.5 μg/mL Nigericin, or 500 μg/mL aluminum were used at different time points as indicated in the right column of bar graphs. IL-1β was quantified by ELISA in the culture supernatant.
The experiment was performed on wildtype and TORID KO mice BMDCs primed with LPS for 3 hours. The BMDCs were subsequently treated with nigericin, ATP, or aluminum for 45 minutes. […] Caspase 1 activation was quantified by FACS using Flica 1 reagent. […] Z-WEHD-FMK was used as the caspase 1 inhibitor, and IL-1β levels were quantified by ELISA in the supernatant of the cell culture stimulated with the indicated compounds.
Inflammasome activation is also associated with an increase of cytosolic Ca^2+. […] Data in this study was generated by loading Ca^2+ sensitive probe Fura-2 in wild type and TORID KO mice BMDCs after priming the BMDCs for three hours with LPS. The cells were exposed to 0.5 mM ATP to elicit inflammasome activation. The cells were excited with a UV laser at 350 nm. Absorbance at 340 nm and 380 nm were recorded in a time lapse manner. As shown in the top illustrations, the TORID KO BMDCs show a higher level of cytosolic Ca^2+. Moreover, IL-1β levels were higher with the TORID KO BMDCs. BAPTA-AM was used to chelate cytosolic Ca^2+.
Potassium (K^+) efflux is also linked to inflammasome activation. In the study shown in FIG. 11, IL-1β synthesis resulting from K^+ was tested. This study was performed on wild type and TORID KO mouse BMDCs treated with LPS and ATP as in the previously described studies herein. Culture medium was replaced by saline buffer containing normal low levels of K^+ (5 mM, K+) or high levels of K^+ (120 mM; K+++). IL-1β was quantified by ELISA in the culture supernatant. As shown in the top graph of FIG. 11, IL-1β levels were higher in the TORID KO mice. […] The results therefore support pharmacological use of TIs to promote inflammasome activation by triggering Ca^2+-activated K^+ channels.
On the technique in general: An ELISA detects its analyte on a solid surface through an enzyme-linked reagent.

* marks the point of attachment. Cbz = O=C(OCc1ccccc1)*; CH2F = FC*

Turning to `COC(=O)C1=C(C)NC(C)=C([N+](=O)[O-])C1c1ccccc1C(F)(F)F` (stereo not shown) [BAY K8644, Methyl 2,6-dimethyl-5-nitro-4-[2-(trifluoromethyl)phenyl]-1,4-dihydropyridine-3-carboxylate], the disease-free survival rates result with EG7.OVA cancer cells was “increased”. The “TORID activity versus BAY K8644 concentration” value in the assay on TORID (0, 5 or 10 uM in normal medium, Na-free buffer signal subtracted) is on record as “dose proportional response”. The “TORID activity (ANG-2 mean fluorescent intensity)” value in the assay on TORID (CHO cells transfected with TORID and Tmem176a, 30 min incubation, vs control) is listed as “inhibits TORID activity”. Also, in the assay on EG7.OVA cells, the “overall rates of survival vs negative control group not injected” value is “higher” and the “survival rate in caspase 1/11 KO vs caspase 1/11 active mice” value is “lowered the survival rate”. Moreover, the rate of survival result in the assay on EG7 and MC38 tumors is “higher rate of survival”.

As to `CCN(CCO)CCCC(C)Nc1ccnc2cc(Cl)ccc12` (stereo not shown) [HCQ, hydroxychloroquine], the IL-1β secretion result in the assay on IL-1β secretion is “mimicked iberiotoxin in controlling IL-1β secretion”.

On to “iberiotoxin: BKCa KCa1.1 specific inhibitor (QFTDVDCSVSKECWSVCKDLFGVDRGKCMGKKCRCYQ; UniProt P24663 1-37, looked up)”, for which the IL-1β secretion entry with IL-1β secretion is reported as “blocked IL-1beta secretion”.

Consider Cbz-WEHD-CH2F, for which, in the assay on IL-1β secretion (BMDCs primed with LPS 3 hours, then nigericin, ATP or aluminum, caspase 1 inhibition), the “IL-1β levels in culture supernatant” value is “lower levels of IL-1β”.

For `CC(=O)OCOC(=O)CN(CC(=O)OCOC(C)=O)c1ccccc1OCCOc1ccccc1N(CC(=O)OCOC(C)=O)CC(=O)OCOC(C)=O` [BAPTA-AM], the IL-1β secretion entry in the assay with IL-1β secretion was “completely blocked IL-1β secretion”.
